Experimental data taken from patent US20200085776A1, “Methods of Reducing C-Reactive Protein and/or Treating Cardiovascular Disease” (CARDAX, INC., priority 2018, published 2020).

Test system: C-reactive protein (CRP)
Assay: CRP (hs-CRP) in blood, CHASE clinical study
Format: in vivo, human
Details: Group X 12 mg BID; for CRP Max / CRP Mean (SD) / CRP Median / CRP Min: V6 Week 12
Source text: This is a two-part study comprising Part I and Part II. Following screening, Part I consists of a randomized, double-blind, placebo controlled dosing period of up to 12 weeks. The study shall be conducted at one or more study sites in Hawaii. Approximately 360 subjects qualified after completion of screening procedures shall be randomized in a 1:1:1 ratio to one of three treatment groups, per Table 1.
The Part I 12-week double-blind dosing period commences with V2, including randomization and first dose of study product, and continues with study visits at Week 1-2 (V3), Week 4 (V4), Week 8 (V5), and Week 12 (V6). V6 procedures will conclude Part I.
Blood shall be obtained at each visit for CRP. The screening specimen shall be processed at the local lab and reported to the study staff for eligibility determination; CRP samples at V7 and V8 may also be processed locally and reported directly to study staff. Samples for CRP from V2 through V6 may be batched, processed, and reported as specified in the Laboratory Manual.
At each these visits, blood was obtained for measurement of CRP, among other parameters. Table 7A provides a summary of the CRP measurements (mg/L) at each visit and Table 7B provides a summary of the differences of CRP levels between V2 and V6.

[1] = subjects with DM2, hypertension and hyperlipidemia but not CAD
[2] = subjects with Diabetes Mellitus Type II
[3] = subjects with baseline level greater than 2.0
[4] = baseline to Week 12, all subjects
[5] = baseline to Week 12, subjects not taking a hypertension agent
[6] = baseline to Week 12, subjects not taking any cardiac therapeutic agent
[7] = baseline to Week 12, subjects not taking statins
[8] = baseline to Week 12, subjects taking an anti-diabetic agent
[9] = baseline to Week 12, subjects with CAD
[10] = baseline to Week 12, subjects with DM2, hypertension and hyperlipidemia but not CAD
[11] = baseline to Week 12, subjects with Diabetes Mellitus Type II
[12] = baseline to Week 12, subjects with baseline level greater than 2.0
[13] = baseline to Week 12, subjects with hyperlipidemia

SMILES: CC1=C(/C=C/C(C)=C/C=C/C(C)=C/C=C/C=C(C)/C=C/C=C(C)/C=C/C2=C(C)C(=O)C(O)CC2(C)C)C(C)(C)CC(O)C1=O (stereo not drawn) [Astaxanthin, astaxanthin]
- CRP Max [1]: 6.80 mg/L
- CRP Mean (SD) [1]: 2.95 (2.32) mg/L
- CRP Median [1]: 1.91 mg/L
- CRP Min [1]: 1.02 mg/L
- CRP Max [2]: 6.80 mg/L
- CRP Mean (SD) [2]: 2.91 (2.07) mg/L
- CRP Median [2]: 2.32 mg/L
- CRP Min [2]: 1.02 mg/L
- CRP Max [3]: 11.04 mg/L
- CRP Mean (SD) [3]: 3.69 (3.14) mg/L
- CRP Median [3]: 2.71 mg/L
- CRP Min [3]: 0.22 mg/L
- CRP Max (subjects with hyperlipidemia): 11.04 mg/L
- CRP Mean (SD) (subjects with hyperlipidemia): 3.90 (3.38) mg/L
- CRP Median (subjects with hyperlipidemia): 2.71 mg/L
- CRP Min (subjects with hyperlipidemia): 1.02 mg/L
- CRP V2 to V6 % Change Max [4]: 122.6%
- CRP V2 to V6 % Change Mean [4]: −21.3%
- CRP V2 to V6 % Change Median [4]: −31.8%
- CRP V2 to V6 % Change Min [4]: −89.8%
- CRP V2 to V6 Change Max [4]: 6.08 mg/L
- CRP V2 to V6 Change Mean [4]: -2.07 mg/L
- CRP V2 to V6 Change Median [4]: -1.57 mg/L
- CRP V2 to V6 Change Min [4]: -11.1 mg/L
- CRP V2 to V6 % Change Max [5]: −25.8, −25.8%
- CRP V2 to V6 % Change Mean (SD) [5]: −25.8%
- CRP V2 to V6 % Change Median [5]: −25.8%
- CRP V2 to V6 % Change Min [5]: −25.8, −25.8%
- CRP V2 to V6 Change Max [5]: −0.94, −0.94 mg/L
- CRP V2 to V6 Change Mean (SD) [5]: -0.94 mg/L
- CRP V2 to V6 Change Median [5]: -0.94 mg/L
- CRP V2 to V6 Change Min [5]: −0.94, −0.94 mg/L
- CRP V2 to V6 % Change Max [6]: −25.8%
- CRP V2 to V6 % Change Mean (SD) [6]: −56.6 (29.46) %
- CRP V2 to V6 % Change Median [6]: −61.9%
- CRP V2 to V6 % Change Min [6]: −89.8%
- CRP V2 to V6 Change Max [6]: -0.37 mg/L
- CRP V2 to V6 Change Mean (SD) [6]: −4.28 (4.63) mg/L
- CRP V2 to V6 Change Median [6]: -1.94 mg/L
- CRP V2 to V6 Change Min [6]: -11.1 mg/L
- CRP V2 to V6 % Change Max [7]: 122.6%
- CRP V2 to V6 % Change Mean (SD) [7]: 2.34 (88.58) %
- CRP V2 to V6 % Change Median [7]: −25.6%
- CRP V2 to V6 % Change Min [7]: −89.8%
- CRP V2 to V6 Change Max [7]: 6.08 mg/L
- CRP V2 to V6 Change Mean (SD) [7]: −0.18 (4.04) mg/L
- CRP V2 to V6 Change Median [7]: -0.80 mg/L
- CRP V2 to V6 Change Min [7]: -5.89 mg/L
- CRP V2 to V6 % Change** Max [8]: −26.6%
- CRP V2 to V6 % Change** Mean (SD) [8]: −52.9 (20.70) %
- CRP V2 to V6 % Change** Median [8]: −55.7%
- CRP V2 to V6 % Change** Min [8]: −78.8%
- CRP V2 to V6 Change Max [8]: -0.37 mg/L
- CRP V2 to V6 Change Mean (SD) [8]: −4.61 (4.14) mg/L
- CRP V2 to V6 Change Median [8]: -3.76 mg/L
- CRP V2 to V6 Change Min [8]: -11.1 mg/L
- CRP V2 to V6 % Change Max [9]: −68.4%
- CRP V2 to V6 % Change Mean (SD) [9]: −68.4%
- CRP V2 to V6 % Change Median [9]: −68.4%
- CRP V2 to V6 % Change Min [9]: −68.48%
- CRP V2 to V6 Change Max [9]: −5.89, −5.89 mg/L
- CRP V2 to V6 Change Mean (SD) [9]: -5.89 mg/L
- CRP V2 to V6 Change Median [9]: -5.89 mg/L
- CRP V2 to V6 Change Min [9]: −5.89, −5.89 mg/L
- CRP V2 to V6 % Change Max [10]: −26.6%
- CRP V2 to V6 % Change Mean (SD) [10]: −49.7 (21.51) %
- CRP V2 to V6 % Change Median [10]: −49.5%
- CRP V2 to V6 % Change Min [10]: −78.8%
- CRP V2 to V6 Change Max [10]: -0.37 mg/L
- CRP V2 to V6 Change Mean (SD) [10]: −4.35 (4.57) mg/L
- CRP V2 to V6 Change Median [10]: -1.63 mg/L
- CRP V2 to V6 Change Min [10]: -11.1 mg/L
- CRP V2 to V6 % Change Max [11]: −26.6%
- CRP V2 to V6 % Change Mean (SD) [11]: −52.9 (20.70) %
- CRP V2 to V6 % Change Median [11]: −55.7%
- CRP V2 to V6 % Change Min [11]: −78.8%
- CRP V2 to V6 Change Max [11]: -0.37 mg/L
- CRP V2 to V6 Change Mean (SD) [11]: −4.61 (4.14) mg/L
- CRP V2 to V6 Change Median [11]: -3.76 mg/L
- CRP V2 to V6 Change Min [11]: -11.1 mg/L
- CRP V2 to V6 % Change Max [12]: 122.6%
- CRP V2 to V6 % Change Mean (SD) [12]: −20.8 (73.37) %
- CRP V2 to V6 % Change Median [12]: −40.7%
- CRP V2 to V6 % Change Min [12]: −89.8%
- CRP V2 to V6 Change Max [12]: 6.08 mg/L
- CRP V2 to V6 Change Mean (SD) [12]: −2.24 (4.83) mg/L
- CRP V2 to V6 Change Median [12]: -1.60 mg/L
- CRP V2 to V6 Change Min [12]: -11.1 mg/L
- CRP V2 to V6 % Change Max [13]: 122.6%
- CRP V2 to V6 % Change Mean (SD) [13]: −27.5 (63.84) %
- CRP V2 to V6 % Change Median [13]: −40.7%
- CRP V2 to V6 % Change Min [13]: −78.8%
- CRP V2 to V6 Change Max [13]: 6.08 mg/L
- CRP V2 to V6 Change Mean (SD) [13]: −2.81 (5.17) mg/L
- CRP V2 to V6 Change Median [13]: -1.60 mg/L
- CRP V2 to V6 Change Min [13]: -11.1 mg/L
